Each structure is given as a SMILES string.

The values below come from patent US20250064789A1, “KETOAMIDE DERIVATIVES AND PHARMACEUTICAL USES THEREOF” (priority 2022, published 2025).

What all share (assay type): cell-based
The test system of assay [1] is SARS-CoV-2 (B.1.1.529) BA.1 mutant strains. Kind of assay: Antiviral activity at the cellular level by RT-qPCR in Vero E6-TMPRSS2 cells. For orientation: Quantitative PCR measures a nucleic acid by following its amplification.
In assay [2] the test system is SARS-CoV-2 Alpha (B.1.1.7) mutant strains. Description: Antiviral activity by plaque method in Vero E6-TMPRSS2 cells: SARS-CoV-2 Alpha.
In assay [3] the test system is SARS-CoV-2 Beta (B.1.351) mutant strains. Description: Antiviral activity by plaque method in Vero E6-TMPRSS2 cells: SARS-CoV-2 Beta.

Take `COC[C@@H](NC(=O)C1CCC(F)(F)CC1)C(=O)N[C@H](Cc1ccccc1)C(=O)C(=O)NCc1nccs1` [Compound 395]: in assay [1], the “inhibitory activity on replication of SARS-CoV-2 (B.1.1.529) in Vero E6-TMPRSS2 cells (in words)” value was “better inhibitory activity”.
With `COC[C@@H](NC(=O)C1CCCC(F)(F)C1)C(=O)N[C@H](Cc1ccccc1)C(=O)C(=O)NCc1nccs1` (stereo partly drawn) [Compound 398, N—((R)-1-(((R)-3,4-dioxo-1-phenyl-4-((thiazole-2-ylmethyl)amino)butan-2-yl)amino)-3-methoxy-1-oxopropan-2-yl)-3,3-difluorocyclohexane-1-formamide], in assay [1], the “inhibitory activity on replication of SARS-CoV-2 (B.1.1.529) in Vero E6-TMPRSS2 cells (in words)” value was “better inhibitory activity”. Further, the “anti-viral activity, times higher than Nirmatrelvir (PF-07321332)” value is recorded as 40.95 times in assay [2] and 10.16 times in assay [3].
